Source: the C3SDB collision cross section collection

Legend:
[1] = instrument: DT, stepped-field
[2] = instrument: DT, single field, calibrated with Agilent tune mix (Agilent)
[3] = instrument: DT, single field, calibrated with Agilent tune mix (Agilent); remark: listed apart in the source

## Nc1c(O)cccc1C(=O)CC(N)C(=O)O (racemic) [3-Hydroxy-DL-kynurenine]
[1]; [M+H]+
  collision cross section (N2): 157.67 Å²
[1]; [M+Na]+
  collision cross section (N2): 160.83 Å²

## OC[C@H]1O[C@@](CO)(OC[C@@]2(O[C@H]3O[C@H](CO)[C@@H](O)[C@H](O)[C@H]3O)O[C@H](CO)[C@@H](O)[C@@H]2O)[C@@H](O)[C@@H]1O [1-Kestose]
[1]; [M+Na]+
  collision cross section (N2): 205.43 Å²

## CCCCCCCCCCCCCCCCCC(=O)N[C@@H](CO)[C@H](O)CCCCCCCCCCCCCCC [Cer(36:0)]
[2]; [M+HCOO]-
  collision cross section (N2): 259 Å²
[2]; [M+H]+
  collision cross section (N2): 262 Å²
[2]; [M+Na]+
  collision cross section (N2): 267.7 Å²
[2]; [M-H]-
  collision cross section (N2): 249 Å²

## CCCCCCCCCCCCC=CC[C@@H](O)[C@H](CO)NC(=O)CCCCCCCCCCCCCCCCCC [Cer(37:1)]
[2]; [M+HCOO]-
  collision cross section (N2): 258.9 Å²
[2]; [M+H]+
  collision cross section (N2): 263.4 Å²
[2]; [M+Na]+
  collision cross section (N2): 269.8 Å²

## CCCCCCCCCCCCCCCCCCCC(=O)N[C@@H](CO)[C@H](O)CCCCCCCCCCCCCCC [Cer(38:0)]
[2]; [M+HCOO]-
  collision cross section (N2): 265.2 Å²
[2]; [M+H]+
  collision cross section (N2): 267.9 Å²

## CCCCCCCCCCCCC=CC[C@@H](O)[C@H](CO)NC(=O)CC=CCCCCCCCCCCCCCCCC [Cer(38:2)]
[2]; [M+H]+
  collision cross section (N2): 262.4 Å²
[2]; [M+Na]+
  collision cross section (N2): 262.1 Å²

## CCCCCCCCCCCCC=CC[C@@H](O)[C@H](CO)NC(=O)CC=CCCCCCCCCCCCCCCCCCC [Cer(40:2)]
[2]; [M+H]+
  collision cross section (N2): 270.3 Å²
[2]; [M+Na]+
  collision cross section (N2): 271.4 Å²
[2]; [M-H]-
  collision cross section (N2): 259.8 Å²

## CCCCCCCCCCCCC=CC[C@@H](O)[C@H](CO)NC(=O)CCCCCCCCCCCCCCCCCCCCCCCC [Cer(43:1)]
[2]; [M+H]+
  collision cross section (N2): 282 Å²

## CCCCCCCCCCCCC=CC[C@@H](O)[C@H](CO)NC(=O)CC=CCCCCCCCCCCCCCCCCCCCCCC [Cer(44:2)]
[2]; [M+H]+
  collision cross section (N2): 283.5 Å²

## CCCCCCCC/C=C\CCCCCCCCCC(=O)O[C@@H](CO)COC(=O)CCCCCCC/C=C\CCCCCCCC [DG(38:2)]
[2]; [M+NH4]+
  collision cross section (N2): 271.6 Å²

## CCCCC/C=C\C/C=C\CCCCCCCCCC(=O)O[C@@H](CO)COC(=O)CCCCCCCCCCCCCCCCCCC [DG(40:2)]
[2]; [M+NH4]+
  collision cross section (N2): 277.7 Å²

## CCCCC/C=C\C/C=C\CCCCCCCC(=O)OC[C@@H](O)COP(=O)([O-])OCC[N+](C)(C)C [LPC(18:2)]
[2]; [M+HCOO]-
  collision cross section (N2): 235.2 Å²
[2]; [M+H]+
  collision cross section (N2): 226.8 Å²
[2]; [M+Na]+
  collision cross section (N2): 231.9 Å²

## CCCCCCCCCCCCCCCCC(=O)OC[C@@H](O)COP(=O)(O)OCCN [LPE(17:0)]
[2]; [M+H]+
  collision cross section (N2): 217.1 Å²
[2]; [M-H]-
  collision cross section (N2): 210.1 Å²

## CCCCC/C=C\C/C=C\CCCCCCCCCC(=O)OC[C@@H](O)COP(=O)(O)OCCN [LPE(20:2)]
[2]; [M-H]-
  collision cross section (N2): 216.4 Å²

## CCCCCCCCCCCCCCCCC(=O)OC[C@@H](O)COP(=O)(O)O[C@H]1C(O)C(O)C(O)[C@@H](O)C1O (stereo not given in full) [LPI(17:0)]
[2]; [M-H]-
  collision cross section (N2): 232.6 Å²

## CCCCCCCCCCCCCCCC(=O)OC[C@@H](O)COP(=O)(O)OC[C@H](N)C(=O)O [LPS(16:0)]
[2]; [M-H]-
  collision cross section (N2): 216.4 Å²

## CCCCCCCC/C=C\CCCCCCCCCC(=O)OC[C@@H](O)COP(=O)(O)OC[C@H](N)C(=O)O [LPS(20:1)]
[2]; [M+H]+
  collision cross section (N2): 231.8 Å²

## CCCCC/C=C\C/C=C\C/C=C\CCCCCCC(=O)OC[C@@H](O)COP(=O)(O)OC[C@H](N)C(=O)O [LPS(20:3)]
[2]; [M-H]-
  collision cross section (N2): 221.5 Å²

## CCCCC/C=C\C/C=C\C/C=C\C/C=C\CCCCCC(=O)O[C@H](COC(=O)CCCCCCCCCCCCCC)COP(=O)([O-])OCC[N+](C)(C)C [PC(37:4)]
[2]; [M+H]+
  collision cross section (N2): 290.4 Å²

## CCCCCCCCCCCCCCCC/C=C\OC[C@H](COP(=O)([O-])OCC[N+](C)(C)C)OC(=O)CCCCCCCCCCCCCCC [PC(p34:0)]
[2]; [M+H]+
  collision cross section (N2): 288.3 Å²

## CCCCC/C=C\C/C=C\C/C=C\C/C=C\CCCCCC(=O)O[C@H](CO/C=C\CCCCCCCCCCCCCCCC)COP(=O)([O-])OCC[N+](C)(C)C [PC(p40:4)]
[2]; [M+H]+
  collision cross section (N2): 300.9 Å²

## CCCCCCCCCCCCCC/C=C\OC[C@H](COP(=O)(O)OCCN)OC(=O)CCCCCCCCCCCCCCCCC [PE(p34:0)]
[2]; [M+H]+
  collision cross section (N2): 274.6 Å²

## CCCCCCCCCCCCCCCC/C=C\OC[C@H](COP(=O)(O)OCCN)OC(=O)CCCCCCCCCCCCCCCCC [PE(p36:0)]
[2]; [M+H]+
  collision cross section (N2): 281.6 Å²
[2]; [M-H]-
  collision cross section (N2): 268.4 Å²

## CCCCCCCC/C=C\CCCCCCCCCC(=O)O[C@H](COC(=O)CCCCCCCCCCCCCC)COP(=O)(O)O[C@H]1C(O)C(O)C(O)[C@@H](O)C1O (stereo not given in full) [PI(35:1)]
[2]; [M+NH4]+
  collision cross section (N2): 298.1 Å²
[2]; [M-H]-
  collision cross section (N2): 286.9 Å²

## CCCCC/C=C\C/C=C\CCCCCCCCCCCC(=O)O[C@H](COC(=O)CCCCCCCCCCCC)COP(=O)(O)O[C@H]1C(O)C(O)C(O)[C@@H](O)C1O (stereo not given in full) [PI(35:2)]
[2]; [M+NH4]+
  collision cross section (N2): 295.6 Å²
[2]; [M-H]-
  collision cross section (N2): 285.3 Å²

## CCCCC/C=C\C/C=C\CCCCCCCCCCCC(=O)O[C@H](COC(=O)CCCCCCC/C=C\CCCCC)COP(=O)(O)O[C@H]1C(O)C(O)C(O)[C@@H](O)C1O (stereo not given in full) [PI(37:3)]
[2]; [M+NH4]+
  collision cross section (N2): 301.4 Å²
[2]; [M+Na]+
  collision cross section (N2): 298.9 Å²
[2]; [M-H]-
  collision cross section (N2): 290.1 Å²

## CC/C=C\C/C=C\C/C=C\C/C=C\CCCCC(=O)OC[C@H](COP(=O)(O)O[C@H]1C(O)C(O)C(O)[C@@H](O)C1O)OC(=O)CCCCCCCCCCCCCCCCCC (stereo not given in full) [PI(37:4)]
[2]; [M+H]+
  collision cross section (N2): 298.9 Å²
[2]; [M+NH4]+
  collision cross section (N2): 300.2 Å²
[2]; [M+Na]+
  collision cross section (N2): 297.6 Å²

## CCCCCC/C=C\CCCCCCCC(=O)OC[C@H](COP(=O)(O)O[C@H]1C(O)C(O)C(O)[C@@H](O)C1O)OC(=O)CCCCCCCCCCCCCCCCCCCCC (stereo not given in full) [PI(38:1)]
[2]; [M-H]-
  collision cross section (N2): 296.1 Å²

## CCCCCCCC/C=C\CCCCCCCCCC(=O)O[C@H](COC(=O)CCCCCCCCCCCCC)COP(=O)(O)OC[C@H](N)C(=O)O [PS(34:1)]
[2]; [M+H]+
  collision cross section (N2): 280 Å²
[2]; [M-H]-
  collision cross section (N2): 273.1 Å²

## CCCCCCCCCCCCC=CC[C@@H](O)[C@H](COP(=O)([O-])OCC[N+](C)(C)C)NC(=O)CCCCCCCCCCCCCC [SM(33:1)]
[2]; [M+H]+
  collision cross section (N2): 279.2 Å²

## CCCCCCCCCCCCCCCC(=O)N[C@@H](COP(=O)([O-])OCC[N+](C)(C)C)[C@H](O)CCCCCCCCCCCCCCC [SM(34:0)]
[2]; [M+HCOO]-
  collision cross section (N2): 282.3 Å²
[2]; [M+H]+
  collision cross section (N2): 285 Å²
[2]; [M+Na]+
  collision cross section (N2): 284.8 Å²

## CCCCCCCCCCCCC=CCC(=O)N[C@@H](COP(=O)([O-])OCC[N+](C)(C)C)[C@H](O)CC=CCCCCCCCCCCCC [SM(34:2)]
[2]; [M+H]+
  collision cross section (N2): 281.4 Å²

## CCCCC/C=C\C/C=C\C/C=C\C/C=C\CCCCCC(=O)OC[C@@H](COC(=O)CCCCCCCCCCCCCCC)OC(=O)CCCCCCC/C=C\CCCCCCC [TG(55:5)]
[2]; [M+NH4]+
  collision cross section (N2): 324.6 Å²

## CCCCC/C=C\C/C=C\C/C=C\CCCCCCC(=O)O[C@H](COC(=O)CCCC/C=C\C/C=C\C/C=C\CCCCC)COC(=O)CCCCCCCCC/C=C\CCCCCCCCCC [TG(60:7)]
[2]; [M+NH4]+
  collision cross section (N2): 339 Å²

## CC/C=C\C/C=C\C/C=C\C/C=C\C/C=C\CCCC(=O)O[C@H](COC(=O)CCCCCCC/C=C\C/C=C\C/C=C\CC)COC(=O)CCCCCCCCC/C=C\CCCCCCCCCC [TG(60:9)]
[2]; [M+NH4]+
  collision cross section (N2): 336 Å²

## CC/C=C\C/C=C\C/C=C\C/C=C\C/C=C\C/C=C\CCC(=O)OC[C@@H](COC(=O)CCCCCCC/C=C\C/C=C\C/C=C\CC)OC(=O)CCCCCCCC/C=C\C/C=C\C/C=C\CCCCC [TG(62:12)]
[2]; [M+NH4]+
  collision cross section (N2): 337.5 Å²

## COc1cc(C(=O)O)ccc1O [Vanillic acid]
[3]; [M+H]+
  collision cross section (N2): 136.2 Å²

## O=c1[nH]c(=O)c2ncn([C@@H]3O[C@H](COP(=O)(O)O)[C@@H](O)[C@H]3O)c2[nH]1 [Xanthylic acid]
[3]; [M+H]+
  collision cross section (N2): 174.7 Å²
[3]; [M-H]-
  collision cross section (N2): 164.74 Å²

## O=P(O)(O)O[C@H]1O[C@H](CO)[C@@H](O)[C@H](O)[C@H]1O [alpha-D-Glucose 1-phosphate]
[3]; [M+Na]+
  collision cross section (N2): 158 Å²
[3]; [M-H]-
  collision cross section (N2): 145.48 Å²

## CC(=O)NC(CCC(N)=O)C(=O)O [alpha-N-Acetyl-L-glutamine]
[3]; [M+Na]+
  collision cross section (N2): 144.2 Å²
[3]; [M-H]-
  collision cross section (N2): 136.83 Å²

## Nc1ccn([C@H]2C[C@H](O)[C@@H](COP(=O)(O)OP(=O)(O)OP(=O)(O)O)O2)c(=O)n1 [dCTP]
[3]; [M+H]+
  collision cross section (N2): 184.9 Å²

## N[C@@H](CCC(=O)N[C@@H](Cc1ccccc1)C(=O)O)C(=O)O [gamma-Glutamylphenylalanine]
[3]; [M+H]+
  collision cross section (N2): 168.2 Å²

## CC(C)[C@H](NC(=O)CC[C@H](N)C(=O)O)C(=O)O [gamma-Glutamylvaline]
[3]; [M+H]+
  collision cross section (N2): 160.1 Å²

## O=C(O)Cc1ccc(O)cc1 [p-Hydroxyphenylacetic acid]
[3]; [M-H]-
  collision cross section (N2): 126.65 Å²
